# Experimental data as given in patent US4056520A (Research Corporation, priority 1975, dated 1977).
# Tested on: pituitary dwarf
# Test: Metabolic studies in a pituitary dwarf (human growth hormone-like activity)
# Type: in vivo
# Details: same pituitary dwarf
# Protocol: There was also observed an increase in urinary calcium. […] This fraction in accordance with this invention evidencing clinical activity was administered by injection into the pituitary dwarf.
# In the treatment of the pituitary dwarf mentioned hereinabove with the active A-II fraction, the treatment involved metabolic studies. The pituitary dwarf received 5 milligrams of the A-II fraction dissolved in water twice a day intramuscularly for five days. The active A-II fraction could just as well been given intravenously although one would predict that the effects would be more prolonged with intramuscular injection. It would appear unlikely that the A-II fraction, being a peptide, could efficiently be given orally since it would be digested in the gastrointestinal tract.
substance,measurement,value
human growth hormone: human growth hormone given to the same pituitary dwarf for comparison,responses compared with the A-II fraction,qualitatively the same although the human growth hormone was more effective
